The values that follow come from US7563788B2, “Substituted Imidazo[1,2-a]pyridines as Antibacterial Agents” (Pfizer Inc., priority 2004, dated 2009).

In data set [1] the test system is Neisseria gonorrhoeae, GC525 (NG-2888). As to the kind of experiment: In-vitro antibacterial activity, microbroth dilution MIC susceptibility testing. The data set is classed as cell-based. Particulars: gonococcal broth, 20-24 hours at 35° C., lowest concentration preventing visible growth. How it is done:
The in-vitro antibacterial activity of selected compounds was determined against a stain of Neisseria gonorrhoeae, GC525 (NG-2888), which is described by Rouquette-Loughlin et al, in Journal of Bacteriology, February 2003, p. 1101-1106, at p. 1103. In general, minimum inhibitory concentration (MIC) susceptibility testing followed procedures recommended by the National Committee for Clinical Laboratory Standards (NCCLS^1-2) or followed the descriptions described below:
Neisseria gonorrhoeae strains were grown on Chocolate Agar II plates (BBL—Becton Dickinson Microbiology Systems, Cockeysville, Md.) and incubated at 35° C. in a humidified 5% CO2 incubator (Forma Scientific, Marietta Ohio). For microbroth dilution MIC testing, N. gonorrhoeae were tested in gonococcal broth (GCB):
Bacterial culture identifications were confirmed by standard microbiological methods.^4 N. gonorrhoeae strains were streaked onto appropriate agar plates for visualization of purity and expected colony morphology. Gram stains were also utilized.
Bacterial stock cultures are stored as frozen suspensions at −70° C. N. gonorrhoeae cultures are suspended in inactivated Horse Serum (Colorado Serum Company, Denver, Colo.) containing 7.5% glucose prior to snap freezing in a dry ice/ethanol bath.
Frozen stock cultures were used as the initial source of organisms for performing microbroth dilution MIC testing. Stock cultures were passed on their respective growth medium at least one growth cycle (18-24 hours) prior to their use. Bacterial culture suspensions were prepared directly from Chocolate Agar II plates into 10 mL cation-adjusted Mueller-Hinton Broth (CAMHB, BBL, # BB215069). Before use, cultures were adjusted to an optical density value of […] on a Perkin-Elmer Lambda EZ150 Spectrophotometer (Wellesley, Mass.) set at a wavelength of 600 nm. Random cultures were plated for validation of actual colony counts. The adjusted cultures were diluted 400-fold (0.25 mL inoculum+100 mL GCB) into gonococcal broth producing a starting inoculum of approximately 5×10^5 cfu/mL. These cultures were inoculated into test plates (100 uL/well) using a Biomek® FX workstation (Beckman Coulter Inc., Fullerton, Calif.). The inoculated plates were placed in stacks of no more than 4 and covered with an empty plate. Plates were incubated for 20-24 hours at 35° C. in a humidified CO2 incubator.
Drug stock solutions (2 mg/mL in DMSO) were prepared on the day of testing. Drugs were weight corrected for assay content where necessary.
Microbroth dilution stock plates were prepared in two dilution series, 64-0.06 ug drug/mL and 1-0.001 ug drug/mL. For the high concentration series, 200 uL of stock solution (2 mg/mL) was added to duplicate rows of a 96-well plate. This was used as the first well in the dilution series. Serial two-fold decremental dilutions were made using a BioMek FX robot (Beckman Coulter Inc., Fullerton, Calif.) with 10 of the remaining 11 wells, each of which contained 100 uL of the appropriate solvent/diluent. Row 12 contained solvent/diluent only and served as the control. For tube one of the low concentration series, 200 uL of a 31.25 ug/mL stock was added to duplicate rows of a 96-well plate. Serial two-fold dilutions were made as described above.
Daughter plates were spotted (3.2 uL/well) from the stock plates listed above using the BioMek FX robot and were inoculated with organism (100 uL/well) as described previously.
After incubation, the degree of growth in each well was read visually with the aid of a Test Reading Mirror (Dynatech Lab 220-16, Dynex Technologies, Chantilly, Va.). 96-well test plates are read in a darkened room with a single light shining from above. The MIC is the lowest concentration of drug that prevents macroscopically visible growth under the conditions of the test. Each drug dilution series was tested in duplicate; identical results are not always obtained. If MIC values in duplicate tests differ by 1 well (two-fold), the […] value is reported. […]
On the technique in general: In broth dilution the organism is exposed to a series of concentrations in liquid medium.

Structures are written as SMILES. Converted amounts (≈) assume the structure as drawn. A value given as a limit tells only on which side of the number the result lay.

Consider `CCOC(=O)Nc1cn2ccc(-c3cnc(N(C)C)nc3)cc2n1` [Example 2A, [7-(2-Dimethylamino-pyrimidin-5-yl)-imidazo[1,2-a]pyridin-2-yl]-carbamic Acid Ethyl Ester], for which the melting point (as a rule, the temperature of the solid-liquid transition) was 270 to 280 °C (dec.). For the same compound, in data set [1], the minimum inhibitory concentration (MIC) (commonly the least concentration at which growth counts as inhibited) is over 64 µg/mL.

As for `CCNC(=O)Nc1cn2ccc(-c3cnc(N(C)C)nc3)cc2n1` [Example 2B, 1-[7-(2-Dimethylamino-pyrimidin-5-yl)-imidazo[1,2-a]pyridin-2-yl]-3-ethyl-urea], the melting point was 259 to 263 °C (dec.). 16 µg/mL (≈ 49.2 µM) was the least that counted as inhibitory in data set [1] (MIC). In the case of `CCOC(=O)Nc1cn2ccc(-c3ccc(OC)nc3)cc2n1` [Example 3A, [7-(6-Methoxy-pyridin-3-yl)-imidazo[1,2-a]pyridin-2-yl]-carbamic Acid Ethyl Ester], the melting point is 273 to 279 °C (dec.). This compound also returned a minimum inhibitory concentration (MIC) in data set [1] of over 64 µg/mL. On the same counts, the results for `CCNC(=O)Nc1cn2ccc(-c3ccc(OC)nc3)cc2n1` [Example 3B, 1-Ethyl-3-[7-(6-methoxy-pyridin-3-yl)-imidazo[1,2-a]pyridin-2-yl]-urea] are 222 to 225 °C (dec.) and 16 µg/mL (≈ 51.4 µM). For `CCNC(=O)Nc1cn2ccc(-c3cnc(OC)nc3)cc2n1` [Example 4, 1-Ethyl-3-[7-(2-methoxy-pyrimidin-5-yl)-imidazo[1,2-a]pyridin-2-yl]-urea], in that order: over 300 °C and 12.7 µg/mL (≈ 40.7 µM). The compound `CCNC(=O)Nc1cn2ccc(-c3ccnc(NC(=O)OC(C)(C)C)c3)cc2n1` [Example 37, {4-[2-(3-Ethyl-ureido)-imidazo[1,2-a]pyridin-7-yl]-pyridin-2-yl}-carbamic Acid Tert-Butyl Ester] registered an MIC in data set [1] of 64 µg/mL (≈ 161 µM). With `CCNC(=O)Nc1cn2ccc(-c3ccn[nH]3)cc2n1` [Example 38, 1-Ethyl-3-[7-(2H-pyrazol-3-yl)-imidazo[1,2-a]pyridin-2-yl]-urea], the melting point is 292 to 295 °C (dec.). Also, the lowest concentration to inhibit growth in data set [1] (MIC) was 32 µg/mL (≈ 118 µM). In the case of `CCNC(=O)Nc1cn2ccc(-c3csnn3)cc2n1` [Example 39, 1-Ethyl-3-(7-[1,2,3]thiadiazol-4-yl-imidazo[1,2-a]pyridin-2-yl)-urea], inhibition of growth in data set [1] (MIC) required 16 µg/mL (≈ 55.5 µM).

Consider `CCNC(=O)Nc1cn2ccc(-c3noc(C(C)C)n3)cc2n1` [Example 40, 1-Ethyl-3-[7-(5-isopropyl-[1,2,4]oxadiazol-3-yl)-imidazo[1,2-a]pyridin-2-yl]-urea], for which, in data set [1], the MIC is over 64 µg/mL.

Compound `CCNC(=O)Nc1cn2ccc(-c3noc(=O)[nH]3)cc2n1` [Example 41, 1-Ethyl-3-[7-(5-oxo-4,5-dihydro-[1,2,4]oxadiazol-3-yl)-imidazo[1,2-a]pyridin-2-yl]-urea] displayed an MIC in data set [1] of over 64 µg/mL. The same measure, in the same setting: then `CCNC(=O)Nc1cn2ccc(-c3ccnc(N)c3)cc2n1` [Example 42, 1-[7-(2-Amino-pyridin-4-yl)-imidazo[1,2-a]pyridin-2-yl]-3-ethyl-urea], with 64 µg/mL (≈ 216 µM); and `CCNC(=O)Nc1cn2ccc(C(=O)N3CCOCC3)cc2n1` [Example 43, 1-Ethyl-3-[7-(morpholine-4-carbonyl)-imidazo[1,2-a]pyridin-2-yl]-urea], with over 64 µg/mL. On the same count and under the same terms, then `CCNC(=O)Nc1cn2ccc(-c3ccnc(OC)c3)cc2n1` [Example 44, 1-Ethyl-3-[7-(2-methoxy-pyridin-4-yl)-imidazo[1,2-a]pyridin-2-yl]-urea], with 16 µg/mL (≈ 51.4 µM); and `CCNC(=O)Nc1cn2c(-c3nc(C)no3)cc(-c3cccnc3)cc2n1` [Example 45, 1-Ethyl-3-[5-(3-methyl-[1,2,4]oxadiazol-5-yl)-7-pyridin-3-yl-imidazo[1,2-a]pyridin-2-yl]-urea], with 0.25 µg/mL (≈ 0.688 µM). For the compound `CCNC(=O)Nc1cn2ccc(-c3ccc(F)nc3)cc2n1` [Example 46, 1-Ethyl-3-[7-(6-fluoro-pyridin-3-yl)-imidazo[1,2-a]pyridin-2-yl]-urea], the lowest concentration to inhibit growth in data set [1] (MIC) was 16 µg/mL (≈ 53.5 µM). The same measure, in the same setting: then `CCNC(=O)Nc1cn2c(C(=O)NCC)cc(-c3cnc(N(C)C)nc3)cc2n1` [Example 50, 7-(2-Dimethylamino-pyrimidin-5-yl)-2-(3-ethyl-ureido)-imidazo[1,2-a]pyridine-5-carboxylic Acid Ethylamide], with 2 µg/mL (≈ 5.04 µM). On the same count and under the same terms, then `CCNC(=O)Nc1cn2c(-c3ncccn3)cc(-c3cnc(N(C)C)nc3)cc2n1` [Example 51, 1-[7-(2-Dimethylamino-pyrimidin-5-yl)-5-pyrimidin-2-yl-imidazo[1,2-a]pyridin-2-yl]-3-ethyl-urea], with 0.13 µg/mL (≈ 0.322 µM).
